From US20210087206A1, “MACROCYCLIC KINASE INHIBITORS AND THEIR USE” (TURNING POINT THERAPEUTICS, INC., priority 2017, published 2021) come the findings set out here.

Holding throughout (assay): Cell proliferation assay (CellTiter-Glo)
Holding throughout (type): cell-based
In general terms: In ATP-based viability assays light output follows the ATP content of the culture.

For assay [1], the system named is KG-1 cell (OP2-FGFR1). To be noted: Homo sapiens, anti-cell proliferation, 72 hours. Here is the method:
(§1) Cell Lines and Cell Culture:
(§2) Colorectal cell line KM 12 (harboring endogenous TPM3-TRKA fusion gene) was obtained from NCI. Acute myelogenous cell line KG-1 (harboring endogenous OP2-FGFR1 fusion gene) were purchased from ATCC.
(§3) Cell Proliferation Assays:
(§4) Two thousand cells per well were seeded in 384 well white plate for 24 hrs, and then treated with compounds for 72 hours (37° C., 5% CO2). Cell proliferation was measured using CellTiter-Glo luciferase-based ATP detection assay (Promega) following the manufactures's protocol. IC50 determinations were performed using GraphPad Prism software (GraphPad, Inc., San Diego, Calif.).

Assay [2] concerns KM12 (TPM3-TRKA). To be noted: Homo sapiens, anti-cell proliferation, 72 hours. As for the experimental part: as §1, §2, §3, §4
Assay [3] concerns the target T1, BaF3 EML4-ALK (Homo sapiens, UniProt Q9UM73).
T1 construct: The EML4-ALK gene (variant 1) was synthesized at GenScript and cloned into pCDH-CMV-MCS-EF1-Puro plasmid (System Biosciences, Inc); fused on or other part: EML4 N-terminal part (variant 1: exons 1-13, with the coiled-coil that oligomerises the fusion) fused to the intracellular part of ALK, which contains the kinase domain; Q9HC35 (Echinoderm microtubule-associated protein-like 4)
To be noted: anti-cell proliferation, 72 hours. As for the experimental part:
Cloning and Ba/F3 or NIH3T3 Stable Cell Line Creation
The EML4-ALK gene (variant 1) was synthesized at GenScript and cloned into pCDH-CMV-MCS-EF1-Puro plasmid (System Biosciences, Inc). Ba/F3-EML4-ALK wild type were generated by transducing Ba/F3 cells with lentivirus containing EML4-ALK wide type. Stable cell lines were selected by puromycin treatment, followed by IL-3 withdrawal. Briefly, 5×10^6 Ba/F3 cells were transduced with lentivirus supernatant in the presence of 8 μg/mL protamine sulfate. The transduced cells were subsequently selected with 1 μg/mL puromycin in the presence of IL3-containing medium RPMI1640, plus 10% FBS. After 10-12 days of selection, the surviving cells were further selected for IL3 independent growth.
as §3, §4

T1 sequence (Q9UM73 whole entry, stated change not applied, the tested form may be a part): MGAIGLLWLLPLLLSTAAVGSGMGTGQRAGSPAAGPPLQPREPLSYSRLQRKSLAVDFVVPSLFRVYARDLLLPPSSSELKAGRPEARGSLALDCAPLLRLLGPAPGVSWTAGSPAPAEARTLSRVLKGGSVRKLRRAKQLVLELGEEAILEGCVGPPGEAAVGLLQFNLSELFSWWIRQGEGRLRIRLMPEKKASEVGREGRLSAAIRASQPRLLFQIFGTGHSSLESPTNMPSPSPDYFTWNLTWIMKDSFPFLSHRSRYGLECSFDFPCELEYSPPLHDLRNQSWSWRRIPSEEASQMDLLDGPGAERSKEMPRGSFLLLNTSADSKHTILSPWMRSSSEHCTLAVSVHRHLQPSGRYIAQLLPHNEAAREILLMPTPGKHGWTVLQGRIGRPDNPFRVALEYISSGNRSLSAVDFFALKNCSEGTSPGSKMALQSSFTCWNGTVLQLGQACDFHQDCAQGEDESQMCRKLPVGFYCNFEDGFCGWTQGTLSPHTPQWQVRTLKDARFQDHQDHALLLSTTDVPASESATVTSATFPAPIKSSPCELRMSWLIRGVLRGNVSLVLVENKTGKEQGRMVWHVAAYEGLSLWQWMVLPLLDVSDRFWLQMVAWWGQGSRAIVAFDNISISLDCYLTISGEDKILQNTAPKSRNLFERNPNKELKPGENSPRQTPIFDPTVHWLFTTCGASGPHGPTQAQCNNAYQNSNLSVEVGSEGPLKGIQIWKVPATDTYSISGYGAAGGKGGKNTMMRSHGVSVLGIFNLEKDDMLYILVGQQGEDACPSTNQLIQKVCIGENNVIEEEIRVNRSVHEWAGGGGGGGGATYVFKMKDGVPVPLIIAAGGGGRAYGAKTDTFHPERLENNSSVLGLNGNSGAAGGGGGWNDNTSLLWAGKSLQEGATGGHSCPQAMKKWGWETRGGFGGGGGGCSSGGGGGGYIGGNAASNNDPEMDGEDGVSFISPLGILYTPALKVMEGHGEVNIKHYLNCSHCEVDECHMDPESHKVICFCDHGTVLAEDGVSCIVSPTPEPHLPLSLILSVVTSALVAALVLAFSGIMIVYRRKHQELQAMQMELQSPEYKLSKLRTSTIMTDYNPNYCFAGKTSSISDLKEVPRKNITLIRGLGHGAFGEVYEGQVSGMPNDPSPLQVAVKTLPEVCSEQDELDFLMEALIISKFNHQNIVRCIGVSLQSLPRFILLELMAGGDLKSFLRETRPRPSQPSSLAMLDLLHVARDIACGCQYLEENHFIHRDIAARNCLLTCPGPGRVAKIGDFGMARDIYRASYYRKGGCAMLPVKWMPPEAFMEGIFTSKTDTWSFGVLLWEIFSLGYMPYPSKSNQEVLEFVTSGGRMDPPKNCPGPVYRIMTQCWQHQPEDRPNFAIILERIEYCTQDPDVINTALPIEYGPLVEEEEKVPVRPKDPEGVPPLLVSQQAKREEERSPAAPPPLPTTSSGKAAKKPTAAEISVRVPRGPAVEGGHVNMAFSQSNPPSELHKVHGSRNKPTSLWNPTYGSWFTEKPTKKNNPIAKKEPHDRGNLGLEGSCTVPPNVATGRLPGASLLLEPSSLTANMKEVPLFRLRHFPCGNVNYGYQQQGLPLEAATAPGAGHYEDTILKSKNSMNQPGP

The IC50 is the point on the concentration scale where inhibition reaches its midpoint. As for `C[C@H]1CNC(=O)c2cnn3cc4c(nc23)N(CCO4)Cc2c(ccc(F)c2Cl)O1` [Compound 1, (12S)-7-chloro-8-fluoro-12-methyl-3,4,13,14-tetrahydro-6H-18,1-(metheno)[1,4]oxazino[3,4-i]pyrazolo[4,3-f][1,4,8,10]benzoxatriazacyclotridecin-15(12H)-one], the IC50 in assay [1] was 1330 nM; in assay [2], 0.2 nM; in assay [3], 969 nM.
In the case of `C[C@H]1COc2cn3ncc4c3nc2N1Cc1cc(F)ccc1OCCNC4=O` [Compound 2, (4S)-8-fluoro-4-methyl-3,4,13,14-tetrahydro-6H-18,1-(metheno)[1,4]oxazino[3,4-i]pyrazolo[4,3-f][1,4,8,10]benzoxatriazacyclotridecin-15(12H)-one], the IC50 in assay [1] is over 10000 nM; in assay [2], 26.7 nM; in assay [3] it was over 10000 nM.
For `C[C@@H]1COc2cn3ncc4c3nc2N1Cc1cc(F)ccc1OCCNC4=O` [Compound 3, (4R,12S)-8-fluoro-4,12-dimethyl-3,4,13,14-tetrahydro-6H-18,1-(metheno)[1,4]oxazino[3,4-i]-pyrazolo[4,3-f][1,4,8,10]benzo-xatriazacyclotridecin-15(12H)-one], the IC50 in assay [1] amounted to 271 nM; in assay [2], 0.2 nM; in assay [3], 94.2 nM.
As for `C[C@H]1CNC(=O)c2cnn3cc4c(nc23)N(Cc2cc(F)ccc2O1)[C@@H](C)CO4` [Compound 4, (4S,12S)-8-fluoro-4,12-dimethyl-3,4,13,14-tetrahydro-6H-18,1-(metheno)[1,4]oxazino[3,4-i]pyrazolo[4,3-f][1,4,8,10]benzoxatriazacyclotridecin-15(12H)-one], the IC50 in assay [1] was over 10000 nM; in assay [2], 0.2 nM; in assay [3], over 10000 nM.
On to `C[C@@H]1COc2cn3ncc4c3nc2N1Cc1cc(F)ccc1O[C@@H](C)CNC4=O` [Compound 5, (4R,12S)-8-fluoro-4,12-dimethyl-3,4,13,14-tetrahydro-6H-18,1-(metheno)[1,4]oxazino[3,4-i]-pyrazolo[4,3-f][1,4,8,10]benzo-xatriazacyclotridecin-15(12H)-one], for which the IC50 amounted to 194 nM in assay [1], 0.2 nM in assay [2] and 37.7 nM in assay [3].
With `CC[C@@H]1COc2cn3ncc4c3nc2N1Cc1cc(F)ccc1O[C@@H](C)CNC4=O` [Compound 6, (4R,12S)-4-ethyl-8-fluoro-12-methyl-3,4,13,14-tetrahydro-6H-18,1-(metheno)[1,4]oxazino[3,4-i]pyrazolo[4,3-f][1,4,8,10]benzo-xatriazacyclotridecin-15(12H)-one], the IC50 in assay [1] came to 234 nM; in assay [2] it was 0.2 nM; in assay [3] it was 20.6 nM.
With `C[C@@H]1COc2cn3ncc4c3nc2N1Cc1cc(F)cnc1O[C@@H](C)CNC4=O` [Compound 8, (4R,12S)-8-fluoro-4,12-dimethyl-3,4,13,14-tetrahydro-6H-18,1-(metheno)[1,4]oxazino[3,4-i]pyrazolo[4,3-f]pyrido[3,2-l][1,4,8,10]oxatriazacyclotridecin-15(12H)-one], the IC50 in assay [1] worked out at 77.5 nM; in assay [2] it was 0.2 nM; in assay [3] it was 101 nM.
For `C[C@@H]1COc2ccc(F)cc2CN2c3nc4c(cnn4cc3OC[C@H]2C)C(=O)N1` [Compound 9, (4R,13R)-8-fluoro-4,13-dimethyl-3,4,13,14-tetrahydro-6H-18,1-(metheno)[1,4]oxazino[3,4-i]-pyrazolo[4,3-f][1,4,8,10]benzo-xatriazacyclotridecin-15(12H)-one], the IC50 in assay [1] turned out to be 111 nM; in assay [2], 0.2 nM; in assay [3] it was 11.7 nM.
As for `CC[C@@H]1COc2cn3ncc4c3nc2N1Cc1cc(F)cnc1O[C@@H](C)CNC4=O` [Compound 10, (4R,12S)-4-ethyl-8-fluoro-12-methyl-3,4,13,14-tetrahydro-6H-18,1-(metheno)[1,4]oxazino[3,4-i]pyrazolo[4,3-f]pyrido[3,2-l] [1,4,8,10]oxatriazacyclotridecin-15(12H)-one], the IC50 in assay [1] stood at 63.1 nM; in assay [2] it was 0.2 nM; in assay [3] it was 71.2 nM.
On to `C[C@H]1CNC(=O)c2cnn3cc4c(nc23)N(Cc2cc(F)ccc2O1)[C@H](COCc1ccccc1)CO4` [Compound 11, (4R,12S)-4-[(benzyloxy)methyl)-8-fluoro-12-methyl-3,4,13,14-tetrahydro-6H-18,1-(metheno)-[1,4]oxazino[3,4-i]pyrazolo[4,3-f][1,4,8,10]benzoxatriazacyclo-tridecin-15(12H)-one], for which the IC50 turned out to be 4000 nM in assay [1], 91.1 nM in assay [2] and 3170 nM in assay [3].
On to `C[C@H]1CNC(=O)c2cnn3cc4c(nc23)N(Cc2cc(F)ccc2O1)[C@H](CO)CO4` [Compound 12, (4R,12S)-8-fluoro-4-(hydroxymethyl)-12-methyl-3,4,13,14-tetrahydro-6H-18,1-(metheno)[1,4]oxazino[3,4-i]pyrazolo[4,3-f][1,4,8,10]benzoxatriazacyclotridecin-15(12H)-one], for which the results for the IC50 in assay [1], in assay [2] and in assay [3] were 2000 nM, 0.8 nM and 1460 nM, respectively.
With `CC[C@@H]1COc2cn3ncc4c3nc2N1Cc1cc(F)ccc1OC[C@@H](C)NC4=O` [Compound 13, (4R,13R)-4-ethyl-8-fluoro-13-methyl-3,4,13,14-tetrahydro-6H-18,1-(metheno)[1,4]oxazino[3,4-i]pyrazolo[4,3-f][1,4,8,10]benzo-xatriazacyclotridecin-15(12H)-one], the results for the IC50 in assay [1], in assay [2] and in assay [3] were 145 nM, 0.2 nM and 28 nM, respectively.
Regarding `C[C@@H]1COc2ncc(F)cc2CN2c3nc4c(cnn4cc3OC[C@H]2C)C(=O)N1` [Compound 14, (4R,13R)-8-fluoro-4,13-dimethyl-3,4,13,14-tetrahydro-6H-18,1-(metheno)[1,4]oxazino[3,4-i]pyrazolo[4,3-f]pyrido[3,2-l][1,4,8,10]oxatriazacyclotridecin-15(12H)-one], the half-maximal inhibitory concentration (IC50) in assay [1] is 33.6 nM; in assay [2], under 0.2 nM; in assay [3] it was 13.9 nM.
Consider `CC[C@@H]1COc2cn3ncc4c3nc2N1Cc1cc(F)cnc1OC[C@@H](C)NC4=O` [Compound 15, (4R,13R)-4-ethyl-8-fluoro-13-methyl-3,4,13,14-tetrahydro-6H-18,1-(metheno)[1,4]oxazino[3,4-i]pyrazolo[4,3-f]pyrido[3,2-l] [1,4,8,10]oxatriazacyclotridecin-15(12H)-one], for which the IC50 was 25.2 nM in assay [1], under 0.2 nM in assay [2] and 14 nM in assay [3].
As to `C[C@@H]1COc2c(F)cc(F)cc2CN2c3nc4c(cnn4cc3OC[C@H]2C)C(=O)N1` [Compound 16, (4R,13R)-8,10-difluoro-4,13-dimethyl-3,4,13,14-tetrahydro-6H-18,1-(metheno)[1,4]oxazino-[3,4-i]pyrazolo[4,3-f][1,4,8,10]-benzoxatriazacyclotridecin-15(12H)-one], the IC50 is 827 nM in assay [1], under 0.2 nM in assay [2] and 90.2 nM in assay [3].
In the same order, the values of `C[C@H]1CNC(=O)c2cnn3cc4c(nc23)N(CCCO4)Cc2cc(F)ccc2O1` [Compound 17, (13S)-9-fluoro-13-methyl-4,5,14,15-tetrahydro-3H,7H-19,1-(metheno)[1,4]oxazepino-[3,4-i]pyrazolo[4,3-f][1,4,8,10]-benzoxatriazacyclotridecin-16(13H)-one] are 5000 nM, under 0.2 nM and 2640 nM.
Regarding `C[C@H]1CNC(=O)c2cnn3cc4c(nc23)N(Cc2cc(F)ccc2O1)[C@@H](C)CCO4` [Compound 18, (5S,13S)-9-fluoro-5,13-dimethyl-4,5,14,15-tetrahydro-3H,7H-19,1-(metheno)[1,4]oxazepino[3,4-i]-pyrazolo[4,3-f][1,4,8,10]benzo-xatriaxacyclotridecin-16(13H)-one], the half-maximal inhibitory concentration (IC50) is over 10000 nM in assay [1], under 0.2 nM in assay [2] and over 10000 nM in assay [3].
Turning to `C[C@@H]1CCOc2cn3ncc4c3nc2N1Cc1cc(F)ccc1O[C@@H](C)CNC4=O` [Compound 19, (5R,13S)-9-fluoro-5,13-dimethyl-4,5,14,15-tetrahydro-3H,7H-19,1-(metheno)[1,4]oxazepino[3,4-i]-pyrazolo[4,3-f][1,4,8,10]benzo-xatriazacyclotridecin-16(13H)-one], the values for the IC50 in assay [1], in assay [2] and in assay [3] were 9950 nM, under 0.2 nM and 6220 nM, respectively.
For `C[C@@H]1COc2cn3ncc4c3nc2N(Cc2cc(F)ccc2O[C@@H](C)CNC4=O)C1` [Compound 20, (4S,13S)-9-fluoro-4,13-dimethyl-4,5,14,15-tetrahydro-3H,7H-19,1-(metheno)[1,4]oxazepino[3,4-i]-pyrazolo[4,3-f][1,4,8,10]benzo-xatriazacyclotridecin-16(13H)-one], the IC50 in assay [1] was 2420 nM; in assay [2], 5.1 nM; in assay [3] it was 4910 nM.
